{"source": "patent USRE40086E1", "about": "“Method for treating bacterial infection with novel 7-substituted-9-substituted amino 6-demethyl-6-deoxytetracyclines” (Wyeth Holdings Corporation, priority 1991, dated 2008)", "key": {"[1]": {"tested_on": "tetracycline-susceptible E. coli", "test": "Resumption of bacterial growth after washing out the antibiotic (reversibility of binding)", "assay_type": "cell-based", "settings": "30 minutes at growth inhibitory concentrations, then centrifugation and fresh medium", "method": "The antibiotics are added to exponentially growing cultures of tetracycline-susceptible E. coli at growth inhibitory concentrations. After 30 minutes, excess antibiotic is removed from the bacteria by centrifugation and the organism is resuspended in fresh growth medium. The ability of bacteria to resume growth is monitored. […] This reflects the different binding characteristics of the drugs."}, "[2]": {"tested_on": "S. aureus UBMS 88-5 (tetM)", "test": "MIC, agar dilution", "assay_type": "cell-based", "settings": "S. aureus UBMS 88-5 (tetM)"}, "[3]": {"tested_on": "S. aureus UBMS 88-4 (Sensitive)", "test": "MIC, agar dilution", "assay_type": "cell-based", "settings": "S. aureus UBMS 88-4 (Sensitive)"}, "[4]": {"tested_on": "S. aureus UBMS 90-1 (tetM)", "test": "MIC, agar dilution", "assay_type": "cell-based", "settings": "S. aureus UBMS 90-1 (tetM)"}, "[5]": {"tested_on": "S. aureus UBMS 90-2 (tetM)", "test": "MIC, agar dilution", "assay_type": "cell-based", "settings": "Staphylococcus aureus, S. aureus UBMS 90-2 (tetM)"}, "[6]": {"tested_on": "S. aureus UBMS 90-3 (Sensitive)", "test": "MIC, agar dilution", "assay_type": "cell-based", "settings": "Staphylococcus aureus, S. aureus UBMS 90-3 (Sensitive)"}, "[7]": {"tested_on": "S. aureus UBMS 88-7 (tetK)", "test": "MIC, agar dilution", "assay_type": "cell-based", "settings": "Staphylococcus aureus"}, "[8]": {"tested_on": "S. aureus IVES 2943 (meth. resistant)", "test": "MIC, agar dilution", "assay_type": "cell-based", "settings": "Staphylococcus aureus"}, "[9]": {"tested_on": "S. aureus IVES 1983 (meth. resistant)", "test": "MIC, agar dilution", "assay_type": "cell-based", "settings": "Staphylococcus aureus"}, "[10]": {"tested_on": "S. aureus ATCC 29213 (Sensitive)", "test": "MIC, agar dilution", "assay_type": "cell-based", "settings": "Staphylococcus aureus, ATCC29213"}, "[11]": {"tested_on": "S. aureus Smith (Sensitive)", "test": "MIC, agar dilution", "assay_type": "cell-based", "settings": "Staphylococcus aureus"}, "[12]": {"tested_on": "S. haemolyticus AVAH 88-3", "test": "MIC, agar dilution", "assay_type": "cell-based", "settings": "Staphylococcus haemolyticus, AVAH883"}, "[13]": {"tested_on": "E. faecalis 12201", "test": "MIC, agar dilution", "assay_type": "cell-based", "settings": "Enterococcus faecalis, 12201"}, "[14]": {"tested_on": "E. faecalis ATCC 29212", "test": "MIC, agar dilution", "assay_type": "cell-based", "settings": "Enterococcus faecalis, ATCC29212"}, "[15]": {"tested_on": "E. coli UBMS 88-1 (tetB)", "test": "MIC, agar dilution", "assay_type": "cell-based", "settings": "Escherichia coli, E. coli UBMS 88-1 (tetB)"}, "[16]": {"tested_on": "E. coli UBMS 88-2 (Sensitive)", "test": "MIC, agar dilution", "assay_type": "cell-based", "settings": "Escherichia coli"}, "[17]": {"tested_on": "E. coli UBMS 89-1 (tetM)", "test": "MIC, agar dilution", "assay_type": "cell-based", "settings": "Escherichia coli"}, "[18]": {"tested_on": "E. coli UBMS 89-2 (Sensitive)", "test": "MIC, agar dilution", "assay_type": "cell-based", "settings": "Escherichia coli"}, "[19]": {"tested_on": "E. coli ATCC 25922", "test": "MIC, agar dilution", "assay_type": "cell-based", "settings": "Escherichia coli, ATCC25922"}, "[20]": {"tested_on": "E. coli UBMS 90-4 (tetM)", "test": "MIC, agar dilution", "assay_type": "cell-based", "settings": "Escherichia coli"}, "[21]": {"tested_on": "N. gonorrhoeae IL 611 (Sensitive)", "test": "MIC, agar dilution", "assay_type": "cell-based", "settings": "Neisseria gonorrhoeae"}, "[22]": {"tested_on": "N. gonorrhoeae 6418 (tetM)", "test": "MIC, agar dilution", "assay_type": "cell-based", "settings": "Neisseria gonorrhoeae"}, "[23]": {"tested_on": "E. faecalis UBMS 90-6 (tetM)", "test": "MIC, agar dilution", "assay_type": "cell-based", "settings": "Enterococcus faecalis"}, "[24]": {"tested_on": "E. faecalis UBMS 90-7 (tetM)", "test": "MIC, agar dilution", "assay_type": "cell-based", "settings": "Enterococcus faecalis"}, "[25]": {"tested_on": "Neisseria gonorrhoeae", "test": "MIC against clinical isolates (Table V, A and O)", "assay_type": "cell-based"}, "[26]": {"tested_on": "Haemophilus influenzae", "test": "MIC against clinical isolates (Table V, A and O)", "assay_type": "cell-based", "settings": "(18) tested"}, "[27]": {"tested_on": "Enterococcus faecalis", "test": "MIC against clinical isolates (Table V, A and O)", "assay_type": "cell-based"}, "[28]": {"tested_on": "Enterococcus faecium", "test": "MIC against clinical isolates (Table V, A and O)", "assay_type": "cell-based"}, "[29]": {"tested_on": "Escherichia coli", "test": "MIC against clinical isolates (Table V, A and O)", "assay_type": "cell-based", "settings": "Escherichia coli"}, "[30]": {"tested_on": "Klebsiella pneumoniae", "test": "MIC against clinical isolates (Table V, A and O)", "assay_type": "cell-based", "settings": "Klebsiella pneumoniae"}, "[31]": {"tested_on": "Proteus spp. indole+", "test": "MIC against clinical isolates (Table V, A and O)", "assay_type": "cell-based"}, "[32]": {"tested_on": "Bacteroides spp.", "test": "MIC against clinical isolates (Table V, A and O)", "assay_type": "cell-based"}, "[33]": {"tested_on": "E. coli cell-free ribosomes, strain MRE 600 (TC Sensitive Host)", "test": "E. coli in vitro cell free protein translation system (Table VI)", "assay_type": "biochemical"}, "[34]": {"tested_on": "E. coli cell-free ribosomes, strain MRE 600 (tetM) (Tet M Host)", "test": "E. coli in vitro cell free protein translation system (Table VI)", "assay_type": "biochemical"}, "[35]": {"tested_on": "S. aureus UBMS 90-1", "test": "In vivo antibacterial evaluation, acute lethal infection in mice", "settings": "Staphylococcus aureus, UBMS901, sc, read-out: ED50, median effective dose protecting 50% of the infected mice; mice infected with S. aureus UBMS 90-1 (tetM), single subcutaneous dosing", "source_text": "(§1) In Vivo Antibacterial Evaluation (Table VII)"}, "[36]": {"tested_on": "S. aureus UBMS 90-2", "test": "In vivo antibacterial evaluation, acute lethal infection in mice", "settings": "Staphylococcus aureus, UBMS902, sc, read-out: ED50, median effective dose protecting 50% of the infected mice; mice infected with S. aureus UBMS 90-2 (tetM), single subcutaneous dosing", "source_text": "as §1"}}}
{"smiles": "CN(C)c1cc(NC=O)c(O)c2c1CC1CC3C(N(C)C)C(O)=C(C(N)=O)C(=O)C3(O)C(O)=C1C2=O", "note": "(stereo not shown)", "values": [{"measurement": "ability of bacteria to resume growth after excess antibiotic is removed by washing", "setting": "[1]", "result": "bacterial growth resumed when the compound was removed"}]}
{"smiles": "CN(C)c1cc(NC=O)c(O)c2c1CC1CC3C(N(C)C)C(O)=C(C(N)=O)C(=O)C3(O)C(O)=C1C2=O", "note": "(stereo not shown) [Compound A, 7-(Dimethylamino)-9-(formylamino)-6-demethyl-6-deoxytetracycline]", "values": [{"measurement": "MIC", "setting": "[2]", "result": 0.03, "unit": "µg/mL"}, {"measurement": "MIC", "setting": "[2]; Staphylococcus aureus", "result": 0.06, "unit": "µg/mL"}, {"measurement": "MIC", "setting": "[3]", "result": "<0.015", "unit": "µg/mL"}, {"measurement": "MIC", "setting": "[3]; Staphylococcus aureus", "result": 0.015, "unit": "µg/mL"}, {"measurement": "MIC", "setting": "[4]", "result": 0.12, "unit": "µg/mL"}, {"measurement": "MIC", "setting": "[4]; Staphylococcus aureus", "result": 0.06, "unit": "µg/mL"}, {"measurement": "MIC", "setting": "[5]", "result": 0.03, "unit": "µg/mL"}, {"measurement": "MIC", "setting": "[6]", "result": "≤ 0.015", "unit": "µg/mL"}, {"measurement": "MIC", "setting": "[7]", "result": 2, "unit": "µg/mL"}, {"measurement": "MIC", "setting": "[8]", "result": 4, "unit": "µg/mL"}, {"measurement": "MIC", "setting": "[9]", "result": 8, "unit": "µg/mL"}, {"measurement": "MIC", "setting": "[10]", "result": "≤ 0.015", "unit": "µg/mL"}, {"measurement": "MIC", "setting": "[11]", "result": "≤ 0.015", "unit": "µg/mL"}, {"measurement": "MIC", "setting": "[12]", "result": 0.03, "unit": "µg/mL"}, {"measurement": "MIC", "setting": "[13]", "result": 0.12, "unit": "µg/mL"}, {"measurement": "MIC", "setting": "[14]", "result": "≤ 0.015", "unit": "µg/mL"}, {"measurement": "MIC", "setting": "[15]", "result": 32, "unit": "µg/mL"}, {"measurement": "MIC", "setting": "[16]", "result": 0.12, "unit": "µg/mL"}, {"measurement": "MIC", "setting": "[17]", "result": 0.12, "unit": "µg/mL"}, {"measurement": "MIC", "setting": "[18]", "result": 0.12, "unit": "µg/mL"}, {"measurement": "MIC", "setting": "[19]", "result": 0.06, "unit": "µg/mL"}, {"measurement": "MIC", "setting": "[20]", "result": 1, "unit": "µg/mL"}, {"measurement": "MIC", "setting": "[21]", "result": 0.06, "unit": "µg/mL"}, {"measurement": "MIC", "setting": "[22]", "result": 1, "unit": "µg/mL"}, {"measurement": "MIC", "setting": "[23]", "result": 0.12, "unit": "µg/mL"}, {"measurement": "MIC", "setting": "[24]", "result": 0.5, "unit": "µg/mL"}, {"measurement": "MIC50", "setting": "[25]; Neisseria gonorrhoeae", "result": 0.03, "unit": "µg/mL"}, {"measurement": "MIC90", "setting": "[25]; Neisseria gonorrhoeae", "result": 1, "unit": "µg/mL"}, {"measurement": "MIC Range", "setting": "[25]; Neisseria gonorrhoeae clinical isolates, (9) tested", "result": "0.015 to 1.00", "unit": "µg/mL"}, {"measurement": "MIC50", "setting": "[26]", "result": 0.06, "unit": "µg/mL"}, {"measurement": "MIC90", "setting": "[26]", "result": 0.06, "unit": "µg/mL"}, {"measurement": "MIC Range", "setting": "[26]", "result": "<0.008 to 0.06", "unit": "µg/mL"}, {"measurement": "MIC50", "setting": "[27]; Enterococcus faecalis", "result": 0.12, "unit": "µg/mL"}, {"measurement": "MIC90", "setting": "[27]; Enterococcus faecalis", "result": 1, "unit": "µg/mL"}, {"measurement": "MIC Range", "setting": "[27]; Enterococcus faecalis clinical isolates, (14) tested", "result": "<0.015 to 2.00", "unit": "µg/mL"}, {"measurement": "MIC50", "setting": "[28]; Enterococcus faecium", "result": 0.06, "unit": "µg/mL"}, {"measurement": "MIC90", "setting": "[28]; Enterococcus faecium", "result": 2, "unit": "µg/mL"}, {"measurement": "MIC Range", "setting": "[28]; Enterococcus faecium clinical isolates, (11) tested", "result": "<0.015 to 2.00", "unit": "µg/mL"}, {"measurement": "MIC50", "setting": "[29]", "result": 0.25, "unit": "µg/mL"}, {"measurement": "MIC90", "setting": "[29]", "result": "> 32", "unit": "µg/mL"}, {"measurement": "MIC50", "setting": "[30]", "result": 0.5, "unit": "µg/mL"}, {"measurement": "MIC90", "setting": "[30]", "result": 0.5, "unit": "µg/mL"}, {"measurement": "MIC50", "setting": "[31]", "result": 2, "unit": "µg/mL"}, {"measurement": "MIC90", "setting": "[31]", "result": "> 32", "unit": "µg/mL"}, {"measurement": "MIC50", "setting": "[32]; Bacteroides", "result": 0.25, "unit": "µg/mL"}, {"measurement": "MIC90", "setting": "[32]; Bacteroides", "result": 2, "unit": "µg/mL"}, {"measurement": "MIC Range", "setting": "[32]; Bacteroides spp. clinical isolates, (15) tested", "result": ">0.15 to 4.00", "unit": "µg/mL"}, {"measurement": "IC50, concentration of antibiotic required to inhibit protein synthesis by 50% compared to a drug-free control", "setting": "[33]", "result": "<0.3", "unit": "µg/mL"}, {"measurement": "IC50, concentration of antibiotic required to inhibit protein synthesis by 50% compared to a drug-free control", "setting": "[34]", "result": 0.4, "unit": "µg/mL"}, {"measurement": "ED50", "setting": "[35]", "result": 0.22, "unit": "mg/kg"}, {"measurement": "ED50", "setting": "[36]", "result": 0.49, "unit": "mg/kg"}]}
